Read-outs that look alike come from different tables or passages of the source.
Assays:
[1] = Cytotoxicity by MTT assay; format: cell-based, human; details: human
Description: (§1) Exponentially growing HEK293, MRC5 and A549 cells were plated at cell densities 3000 cells per well in 96-well tissue culture plates. […] Cytotoxicity was measured by MTT assay according to the manufacturer's instructions (Promega, Madison, Wis., USA).

A549 cells [2] = assay: Cytotoxicity by MTT assay; format: cell-based, human
Description: as §1

HEK293 cells = assay: Cytotoxicity by MTT assay; format: cell-based, human
Description: as §1

MRC5 cells [3] = assay: Cytotoxicity by MTT assay; format: cell-based, human
Description: as §1

A549 cells [4] = assay: Growth kinetics with DMA prior to 6 Gy radiation; format: cell-based, human; details: for % growth compared to control: A549, 50 μM DMA prior to 6 Gy; for % radioprotection: A549, 6 Gy
Description: (§2) FIG. 2. Radioprotection by DMA Against Radiation in MRC5 and A549 Cell Lines. A) Proliferation of viable MRC5. B) Graphical representation of % survival of MRC5 cell line at 24 and 48 h C) A549 treated with 50 μM DMA in presence and absence of 6 Gy radiation and D) Graphical representation of % survival of A549 cell line at 24 and 48 h. Cell numbers were determined by haemocytometer at 0, 6, 12, 24 and 48 h. Values are mean (±SD) of three independent experiments. *p<0.05 compared to the control group.
(§3) 2 h subsequent to DMA treatment, cells was exposed to γ-irradiation (1.3 Gy/min dose rate) using Co-60 source (Institute of Nuclear Medicine and Allied Sciences, Delhi, India). Following irradiation, cells were incubated for 4 h in a 5% CO2 humidified incubator and processed for further sample preparation.

MRC5 cells [5] = assay: Growth kinetics with DMA prior to 6 Gy radiation; format: cell-based, human; details: for % growth compared to control: MRC5, 50 μM DMA prior to 6 Gy; for % radioprotection: MRC5, 6 Gy
Description: as §2, §3

Balb/c mice [6] = format: in vivo
Description: Balb/c mice with or without DMA treatment were placed in a specially designed, well-ventilated acrylic container and subjected to whole-body irradiation at 5, 6, 8, 9 or 10 Gray (Gy) in a single fraction.
The mice were grouped as follows: Group 1, Sham control (normal saline treated); Group 2, radiation control (whole body exposure to 8 Gy); Group 3, treated with increasing doses (100, 150, 200, 450 and 600 mg/kg bw) of DMA 2 h prior to whole body exposure to 8 Gy and Group 4 treated with similar DMA doses only. Survival study was carried out for a period of 30 days and animals were routinely monitored for their body weight, food and water intake, radiation sickness symptoms and mortality to fix the highest effective dose of DMA against radiation induced toxicity.
Mice were treated with DMA (200 mg/kg bw) prior to whole body exposure to 5, 6, 8, 9 & 10 Gy. DRF was calculated ratio of LD50/30 mice treated with both DMA and radiation to the LD50/30 of mice treated with saline and radiation. Similarly survival with different route of administration of DMA was studied at 8 and 9 Gy TBI.

[7] = tested on: Balb/c mice and tumor bearing mice tissues; assay: Tissue histopathology after 8 Gy TBI; format: in vivo, mouse
Description: The hepatic, spleen and small intestine specimens were collected from Balb/c mice and tumor bearing mice three days after 8 Gy TBI with or without pre-treatment with DMA (50 mg/kg) 2 hour before TBI. Tissue specimens were fixed in 10% buffered formalin, embedded in paraffin, sectioned and stained with H&E and examined using an upright trinocular microscope attached to a CCD camera.

[8] = tested on: Balb/c mice spleen and small intestine; assay: BrdU and IL6 immunohistochemistry; format: in vivo, mouse
Description: Spleen cell survival was determined 3 days after irradiation by 5-bromo-2′-deoxyuridine (BrdU, i.p., 100 mg/kg) to each mouse 2 h before euthanasia. Similarly small intestine was checked for IL6 expression. BrdU and IL6 immunohistochemistry (IHC) were performed as per standard protocol against BrdU and IL6. 3,3,-diaminobenzidine (DAB) was used to detect antigen-antibody binding. Counterstaining was done with hematoxylin, and after dehydration, slides were mounted with glycerogelatin.

Balb/c intestinal cells = assay: Cell proliferation by BrdU labeling, flow cytometry; format: in vivo, mouse
Description: S phase cells were labeled in vivo by administering BrdU (i.p., 100 mg/kg) to each mouse 2 h before euthanasia. Mice were euthanized 3 days after irradiation and small intestine was rapidly dissected, chopped into homogeneous solution by straining with 70μ strainer and fixed in 70% ethanol. Cells stained with 0.5 mL of RNase (2 mg/mL) and 0.5 mL of propidium iodide (0.1% in 0.6% Triton X-100 in PBS) for 30 min in dark. Samples were then analysed on a FACS Calibur flow-cytometer (Becton Dickinson).

Balb/c mice [9] = format: in vivo; details: 400 mg/kg oral before 8Gy TBI
[10] = 50 mg/kg i.v. before 8Gy TBI, 3 days postirradiation
[11] = melanoma TBM, 50 mg/kg i.v., 8Gy TBI
[12] = DMA+Radiation vs irradiated mice

COc1ccc(-c2nc3cc(-c4nc5cc(N6CCN(C)CC6)ccc5[nH]4)ccc3[nH]2)cc1OC [DMA, 5-(4-methylpiperazin-1-yl)-2-[2′-(3,4-dimethoxyphenyl)-5′-benzimidazolyl]benzimidazole]
IC50 ([1]; A549 cells, A549, 1-100 μM, up to 72 h): > 100 µM
IC50 at 24 h ([1]; MRC5 cells, MRC-5 cells, 24 h): 92.5 µM
IC50 at short term incubation (A549 cells [2]; A549, 50 μM DMA, 2 h): no observable IC50
IC50 (cytotoxicity) (A549 cells [2]; A549, 1-100 μM, up to 72 h): could not be achieved
IC50 at short term treatment (A549 cells [2]; A549, DMA at 509 μM for 2 h): no observable IC50
Concentration at which DMA was cytotoxic (HEK293 cells; HEK293): 50 µM
IC50 at short term incubation (HEK293 cells; HEK293, 50 μM DMA, 2 h): no observable IC50
IC50 at short term treatment (HEK293 cells; HEK293, DMA for 2 h): no observable IC50
IC50 at short term incubation (MRC5 cells [3]; MRC5, 50 μM DMA, 2 h): no observable IC50
IC50 at short term treatment (MRC5 cells [3]; MRC5, DMA at 509 μM for 2 h): no observable IC50
% growth compared to control (A549 cells [4]; 24 h): 73%
% growth compared to control (A549 cells [4]; 48 h): 68%
% radioprotection (A549 cells [4]; 24 h): 11.1%
% radioprotection (A549 cells [4]; 48 h): 15%
% growth compared to control (MRC5 cells [5]; 24 h): 58.62%
% growth compared to control (MRC5 cells [5]; 48 h): 74%
% radioprotection (MRC5 cells [5]; 24 h): 20.69%
% radioprotection (MRC5 cells [5]; 48 h): 29%
Survival / radioprotection (Balb/c mice [6]; 50 mg/kg i.v. 2 h prior to 8Gy TBI): 100%
Survival (Balb/c mice [6]; 50 mg/kg i.v., 9Gy TBI): 50%
Radioprotection (Balb/c mice [6]; 50 mg/kg s.c. 3 h prior to 8Gy TBI): 20%
30-days survival rate (Balb/c mice [6]; 100 mg/kg oral before 8Gy TBI): 54%
Survival (Balb/c mice [6]; 125 mg/kg i.p. 2 h before 8Gy): 55%
30-days survival rate (Balb/c mice [6]; 150 mg/kg oral before 8Gy TBI): 70%
30-days survival rate (Balb/c mice [6]; 200 mg/kg oral before 8Gy TBI (dose finding, FIG. 4C)): 80%
30-day survival rate (Balb/c mice [6]; 200 mg/kg oral, 5Gy TBI): 100%
30-day survival rate (Balb/c mice [6]; 200 mg/kg oral, 6Gy TBI): 100%
30-day survival rate (Balb/c mice [6]; 200 mg/kg oral, 8Gy TBI (FIG. 4D)): 82%
30-day survival rate (Balb/c mice [6]; 200 mg/kg oral, 9Gy TBI): 18%
30-day survival rate (Balb/c mice [6]; 200 mg/kg oral, 10Gy TBI): 12%
Dose reduction factor (DRF) (Balb/c mice [6]; 200 mg/kg oral, ratio of LD50/30, Balb/c mice): 1.28
Effect of DMA by itself on rodents (Balb/c mice [6]; DMA only): no effect
Body weight after TBI (Balb/c mice [6]; DMA pre-treated mice, after initial 9 days of radiation): considerable weight regain
Intestine histology [7, 10]: restored the crypts and villi architecture
Liver histology [7, 10]: reduction in the number of pyknotic and inflammatory kupffer cells
Spleen histology [7, 10]: restored the white pulp
Intestine histology, tumor bearing mice [7, 11]: intact better heighted villi and crypts
Lung alveolar structure, tumor bearing mice [7, 11]: less destructured
Spleen histology, tumor bearing mice [7, 11]: structural retention through white and red pulp protection
IL6 level in small intestine (IHC) ([8]; DMA only treated mice): almost equal to control mice
BrdU-positive cells (IHC) [8, 12]: more BrdU-positive cells
IL6 level in small intestine (IHC) [8, 12]: higher level of IL6
Active S-phase cells in intestine (Balb/c intestinal cells; 50 mg/kg i.v. pretreatment, 8Gy TBI): 11%
Cell proliferation in intestine tissue (Balb/c intestinal cells; DMA treated vs control): same
30-days survival rate (Balb/c mice [9]): 90%

— patent US10016515B2, “DMA, a bis-benzimidazole, confers radioprotection to the intestine via Akt/NFκB dual pathway activation” (Jawaharlal Nehru University, priority 2016, dated 2018)
